27 molecules from patent US10457677B2 (priority 2015, dated 2019) can be followed below.

This experiment deals with purified human recombinant ATM (ataxia telangiectasia mutated), full length (Homo sapiens (Human), UniProt Q13315). Put plainly: ATM kinase assay - determination of ATM inhibition (IC50 ATM), TR-FRET. Format: biochemical. The settings on record: 10 μM ATP, substrate p53. As to the method: ATM kinase assay—determination of ATM inhibition (IC50 ATM):
The IC50 value was determined with the aid of a biochemical ATM kinase assay. The assay consists of two steps: the enzymatic reaction and the detection step. Firstly, ATM (ataxia telangiectasia mutated) protein and the test substance are incubated at different concentrations with addition of substrate protein p53 and ATP. ATM mediates the phosphorylation of p53 at several positions, including at amino acid S15. The amount of phosphorylated p53 is determined with the aid of specific antibodies and the TR-FRET technique. The enzymatic ATM assay is carried out as TR-FRET (HTRF™, Cisbio Bioassays) based 384-well assay. In the first step, purified human recombinant ATM (human ATM, full length, GenBank ID NM_000051, expressed in a mammal cell line) is incubated in assay buffer for 15 minutes with the ATM inhibitor in various concentrations and without test substance as negative or neutral control. The assay buffer comprises 25 mM HEPES pH 8.0, 10 mM Mg(CH3COO)2, 1 mM MnCl2, 0,1% BSA and 0,01% Brij® 35, 5 mM dithiothreitol (DTT). […] In the second step, purified human recombinant cmyc-labelled p53 (human p53, full length, GenBank ID BC003596, expressed in Sf21 insect cells) and ATP are added, and the reaction mixture is incubated at 22° C. for 30-35 minutes. The pharmacologically relevant assay volume is 5 μl. […] The enzymatic reaction is stopped by addition of EDTA. […] After incubation, usually for 2 hours (between 1.5 and 15h), for signal development, the plates are analysed in a plate reader (EnVision, PerkinElmer) using TRF mode (and with laser excitation). […] The measurement data were processed by means of Genedata Screener software.

The IC50 is the concentration that gives 50% inhibition.

A value given as a limit tells only on which side of the number the result lay.

Chain of purified human recombinant ATM (ataxia telangiectasia mutated), full length (Q13315 whole entry, change not shown): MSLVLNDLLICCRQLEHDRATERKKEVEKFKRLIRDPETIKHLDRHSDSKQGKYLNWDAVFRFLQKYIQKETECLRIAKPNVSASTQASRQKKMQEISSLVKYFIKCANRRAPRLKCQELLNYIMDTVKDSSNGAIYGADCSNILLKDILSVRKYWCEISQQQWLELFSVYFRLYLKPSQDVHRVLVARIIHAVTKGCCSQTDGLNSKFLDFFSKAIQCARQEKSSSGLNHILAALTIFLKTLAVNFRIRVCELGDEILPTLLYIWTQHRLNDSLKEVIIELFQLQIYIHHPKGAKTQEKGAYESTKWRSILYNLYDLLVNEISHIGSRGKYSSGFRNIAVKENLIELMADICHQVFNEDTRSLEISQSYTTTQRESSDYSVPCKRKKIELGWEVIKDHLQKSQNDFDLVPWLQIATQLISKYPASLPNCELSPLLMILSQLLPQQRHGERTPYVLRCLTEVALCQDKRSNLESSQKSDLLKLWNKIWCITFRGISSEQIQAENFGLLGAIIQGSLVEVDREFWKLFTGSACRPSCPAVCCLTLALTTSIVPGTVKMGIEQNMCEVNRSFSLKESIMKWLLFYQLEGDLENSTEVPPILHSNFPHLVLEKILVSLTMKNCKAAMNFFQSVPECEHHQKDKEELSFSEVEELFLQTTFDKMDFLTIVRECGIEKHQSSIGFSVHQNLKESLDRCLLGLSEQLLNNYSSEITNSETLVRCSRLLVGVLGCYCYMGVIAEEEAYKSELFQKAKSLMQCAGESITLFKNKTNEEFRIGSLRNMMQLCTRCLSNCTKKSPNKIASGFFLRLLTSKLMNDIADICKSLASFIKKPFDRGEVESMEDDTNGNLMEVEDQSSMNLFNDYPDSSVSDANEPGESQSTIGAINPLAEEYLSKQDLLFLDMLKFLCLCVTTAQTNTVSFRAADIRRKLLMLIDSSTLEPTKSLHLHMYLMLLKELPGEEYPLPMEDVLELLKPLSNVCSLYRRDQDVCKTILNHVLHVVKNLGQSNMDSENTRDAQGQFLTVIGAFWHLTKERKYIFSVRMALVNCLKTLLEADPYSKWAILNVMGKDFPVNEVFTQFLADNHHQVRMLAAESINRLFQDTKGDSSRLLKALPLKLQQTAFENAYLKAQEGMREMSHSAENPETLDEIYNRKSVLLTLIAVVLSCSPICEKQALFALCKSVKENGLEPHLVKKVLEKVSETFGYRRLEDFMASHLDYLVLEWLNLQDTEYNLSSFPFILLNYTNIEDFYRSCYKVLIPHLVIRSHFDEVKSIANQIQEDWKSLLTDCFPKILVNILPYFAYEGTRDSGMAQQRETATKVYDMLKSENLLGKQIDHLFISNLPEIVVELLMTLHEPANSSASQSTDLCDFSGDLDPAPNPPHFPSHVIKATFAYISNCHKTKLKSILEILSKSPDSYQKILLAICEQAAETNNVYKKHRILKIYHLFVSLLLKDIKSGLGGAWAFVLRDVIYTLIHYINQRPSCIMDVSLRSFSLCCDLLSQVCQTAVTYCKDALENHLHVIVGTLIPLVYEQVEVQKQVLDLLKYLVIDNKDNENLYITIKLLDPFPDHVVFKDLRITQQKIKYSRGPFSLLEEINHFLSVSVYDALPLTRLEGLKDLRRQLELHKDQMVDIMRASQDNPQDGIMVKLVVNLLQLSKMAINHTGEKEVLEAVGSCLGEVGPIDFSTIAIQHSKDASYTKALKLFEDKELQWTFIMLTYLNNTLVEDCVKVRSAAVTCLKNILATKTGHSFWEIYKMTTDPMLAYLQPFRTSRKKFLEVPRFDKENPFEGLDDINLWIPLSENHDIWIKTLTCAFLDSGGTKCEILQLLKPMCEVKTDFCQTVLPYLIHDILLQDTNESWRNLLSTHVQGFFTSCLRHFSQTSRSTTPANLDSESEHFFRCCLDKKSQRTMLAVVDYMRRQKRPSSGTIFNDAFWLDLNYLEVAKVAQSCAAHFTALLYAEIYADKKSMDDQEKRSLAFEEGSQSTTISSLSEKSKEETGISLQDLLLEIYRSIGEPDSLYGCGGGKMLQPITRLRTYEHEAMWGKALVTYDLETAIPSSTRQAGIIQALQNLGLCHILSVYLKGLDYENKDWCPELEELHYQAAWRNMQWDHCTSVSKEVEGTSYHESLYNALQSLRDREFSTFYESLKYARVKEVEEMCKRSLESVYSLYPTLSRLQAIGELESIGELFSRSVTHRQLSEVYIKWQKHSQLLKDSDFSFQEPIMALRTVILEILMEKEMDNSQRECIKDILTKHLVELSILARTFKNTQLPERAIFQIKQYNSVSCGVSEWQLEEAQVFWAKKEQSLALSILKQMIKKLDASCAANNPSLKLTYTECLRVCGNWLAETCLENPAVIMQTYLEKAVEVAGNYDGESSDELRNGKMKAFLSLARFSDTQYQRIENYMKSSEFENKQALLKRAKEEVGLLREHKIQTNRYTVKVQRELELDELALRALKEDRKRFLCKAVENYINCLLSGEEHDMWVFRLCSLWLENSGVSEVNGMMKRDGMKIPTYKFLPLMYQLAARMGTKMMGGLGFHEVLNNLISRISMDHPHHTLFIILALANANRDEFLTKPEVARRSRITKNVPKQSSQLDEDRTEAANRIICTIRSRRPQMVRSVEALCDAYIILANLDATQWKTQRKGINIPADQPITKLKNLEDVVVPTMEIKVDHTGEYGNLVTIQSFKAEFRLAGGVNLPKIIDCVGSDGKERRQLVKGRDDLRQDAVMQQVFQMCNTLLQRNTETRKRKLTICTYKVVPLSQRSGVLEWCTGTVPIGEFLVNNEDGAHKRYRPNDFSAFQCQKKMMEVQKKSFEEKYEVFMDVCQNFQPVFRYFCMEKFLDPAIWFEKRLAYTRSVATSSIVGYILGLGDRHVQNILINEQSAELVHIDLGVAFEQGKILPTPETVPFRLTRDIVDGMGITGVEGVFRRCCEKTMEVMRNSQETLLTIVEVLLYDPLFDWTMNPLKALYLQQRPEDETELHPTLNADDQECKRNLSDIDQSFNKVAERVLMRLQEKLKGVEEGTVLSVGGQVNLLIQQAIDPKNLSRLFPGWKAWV

On to `COc1cc2ncc3c(c2cc1-c1cn(C)nn1)n(-c1cn(C)nc1C)c(=O)n3C` [Compound Example 42, 1-(1,3-Dimethyl-1H-pyrazol-4-yl)-7-methoxy-3-methyl-8-(1-methyl-1H-1,2,3-triazol-4-yl)-1,3-dihydroimidazo-[4,5-c]quinolin-2-one], for which the IC50 is less than 10 nM.

Regarding `COc1cc2ncc3c(c2cc1-c1cnn(C)c1)n(-c1ccc(C#N)cn1)c(=O)n3C` [Compound Example 48, 6-[7-Methoxy-3-methyl-8-(1-methyl-1H-pyrazol-4-yl)-2-oxo-2,3-dihydroimidazo-[4,5-c]quinolin-1-yl]-nicotinonitrile], the IC50 is less than 10 nM.

`COc1cc2ncc3c(c2cc1-c1cnn(C)c1)n(-c1ccc(F)cn1)c(=O)n3C` [Compound Example 50, 1-(5-Fluoropyridin-2-yl)-7-methoxy-3-methyl-8-(1-methyl-1H-pyrazol-4-yl)-1,3-dihydroimidazo[4,5-c]-quinolin-2-one]: the IC50 was less than 10 nM.

As for `COc1cc2ncc3c(c2cc1-c1cnn(C)c1)n(-c1ncccn1)c(=O)n3C` [Compound Example 52, 7-Methoxy-3-methyl-8-(1-methyl-1H-pyrazol-4-yl)-1-pyrimidin-2-yl-1,3-dihydro-imidazo[4,5-c]quinolin-2-one], the IC50 was less than 10 nM.

With `COc1cc2ncc3c(c2cc1-c1cnn(C)c1)n(-c1ccccn1)c(=O)n3C` [Compound Example 56, 7-Methoxy-3-methyl-8-(1-methyl-1H-pyrazol-4-yl)-1-pyridin-2-yl-1,3-dihydro-imidazo[4,5-c]quinolin-2-one], the IC50 was less than 10 nM.

For `COc1cc2ncc3c(c2cc1-c1cn(C)nn1)n(-c1c(C)cncc1F)c(=O)n3C` [compound 63, 1-(3-Fluoro-5-methylpyridin-4-yl)-7-methoxy-3-methyl-8-(1-methyl-1H-1,2,3-triazol-4-yl)-1,3-dihydroimidazo-[4,5-c] quinolin-2-one], the IC50 was less than 10 nM.

As for `COc1cc2ncc3c(c2cc1-c1cn(C)nn1)n(-c1ccncc1F)c(=O)n3C` [compound 64, 1-(3-Fluoropyridin-4-yl)-7-methoxy-3-methyl-8-(1-methyl-1H-1,2,3-triazol-4-yl)-1,3-dihydroimidazo-[4,5-c] quinolin-2-one], the IC50 was less than 10 nM.

Take `COc1cc2ncc3c(c2cc1-c1cc(N)n[nH]1)n(-c1ncccc1F)c(=O)n3C` [compound 65, 8-(3-Amino-1H-pyrazol-5-yl)-1-(3-fluoro-2-pyridyl)-7-methoxy-3-methyl-imidazo-[4,5-c]quinolin-2-one]: the IC50 is less than 1 nM.

Regarding `COc1cc2ncc3c(c2cc1-c1cnn(C)c1)n(-c1ccc2ccccc2n1)c(=O)n3C` [compound 68, 7-Methoxy-3-methyl-8-(1-methyl-1H-pyrazol-4-yl)-1-quinolin-2-yl-1,3-dihydro-imidazo[4,5-c]quinolin-2-one], the IC50 was less than 10 nM.

With `COc1cc2ncc3c(c2cc1-c1cnn(C)c1)n(-c1ccc2cc[nH]c2n1)c(=O)n3C` [compound 69, 7-Methoxy-3-methyl-8-(1-methyl-1H-pyrazol-4-yl)-1-(1H-pyrrolo[2,3-b]pyridin-6-yl)1,3-dihydroimidazo-[4,5-c]quinolin-2-one], the IC50 was less than 1 nM.

Regarding `COc1cc2ncc3c(c2cc1-c1cnn(C)n1)n(-c1ncc(F)cc1F)c(=O)n3C` [compound 101, 1-(3,5-Difluoropyridin-2-yl)-7-methoxy-3-methyl-8-(2-methyl-2H-1,2,3-triazol-4-yl)-1,3-dihydroimidazo-[4,5-c] quinolin-2-one], the IC50 was less than 50 nM.

Turning to `COc1cc2ncc3c(c2cc1-c1cnn(C)n1)n(-c1cn(C)nc1C)c(=O)n3C` [compound 102, 1-(1,3-Dimethyl-1H-pyrazol-4-yl)-7-methoxy-3-methyl-8-(2-methyl-2H-1,2,3-triazol-4-yl)-1,3-dihydroimidazo-[4,5-c]quinolin-2-one], the IC50 is less than 50 nM.

Turning to `CCn1cc(-c2cc3c(cc2OC)ncc2c3n(-c3ccncc3OC)c(=O)n2C)cn1` [compound 104, 8-(1-Ethyl-1H-pyrazol-4-yl)-7-methoxy-1-(3-methoxy-pyridin-4-yl)-3-methyl-1,3-dihydroimidazo[4,5-c] quinolin-2-one], the half-inhibitory concentration (IC50) was less than 10 nM.

With `COc1cnc(-n2c(=O)n(C)c3cnc4cc(OC)c(-c5cn(C)nc5C)cc4c32)c(F)c1` [compound 106, 8-(1,3-Dimethyl-1H-pyrazol-4-yl)-1-(3-fluoro-5-methoxypyridin-2-yl)-7-methoxy-3-methyl-1,3-dihydroimidazo[4,5-c]-quinolin-2-one], the IC50 was less than 1 nM.

As for `COc1cc2ncc3[nH]c(=O)n(-c4ncc(F)cc4F)c3c2cc1-c1cnn(C)c1` [compound 107, 1-(3,5-Difluoropyridin-2-yl)-7-methoxy-8-(1-methyl-1H-pyrazol-4-yl)-1,3-dihydro-imidazo[4,5-c]quinolin-2-one], the IC50 was less than 1 nM.

On to `COc1cnc(-n2c(=O)n(C)c3cnc4cc(OC)c(-c5ccn[nH]5)cc4c32)c(F)c1` [compound 109, 1-(3-Fluoro-5-methoxy-pyridin-2-yl)-7-methoxy-3-methyl-8-(2H-pyrazol-3-yl)-1,3-dihydroimidazo[4,5-c] quinolin-2-one], for which the IC50 was less than 10 nM.

In the case of `CCn1cc(-c2cc3c(cc2OC)ncc2c3n(-c3ncc(OC)cc3F)c(=O)n2C)cn1` [compound 111, 8-(1-Ethyl-1H-pyrazol-4-yl)-1-(3-fluoro-5-methoxy-pyridin-2-yl)-7-methoxy-3-methyl-1,3-dihydroimidazo-[4,5-c] quinolin-2-one], the IC50 is less than 10 nM.

As to `CCc1cncc(F)c1-n1c(=O)n(C)c2cnc3cc(OC)c(-c4cnn(C)n4)cc3c21` [compound 112, 1-(3-Ethyl-5-fluoropyridin-4-yl)-7-methoxy-3-methyl-8-(2-methyl-2H-1,2,3-triazol-4-yl)-1,3-dihydroimidazo-[4,5-c] quinolin-2-one], the IC50 was less than 10 nM.

For `CCOc1cnc(-n2c(=O)n(C)c3cnc4cc(OC)c(-c5cnn(C)c5)cc4c32)c(F)c1` [compound 113, 1-(5-Ethoxy-3-fluoropyridin-2-yl)-7-methoxy-3-methyl-8-(1-methyl-1H-pyrazol-4-yl)-1,3-dihydroimidazo[4,5-c]-quinolin-2-one], the IC50 is less than 1 nM.

As for `COc1cnc(-n2c(=O)[nH]c3cnc4cc(OC)c(-c5cnn(C)c5)cc4c32)c(F)c1` [compound 115, 1-(3-Fluoro-5-methoxy-pyridin-2-yl)-7-methoxy-8-(1-methyl-1H-pyrazol-4-yl)-1,3-dihydroimidazo[4,5-c]-quinolin-2-one], the IC50 is less than 10 nM.

Take `COc1cc2ncc3[nH]c(=O)n(-c4c(F)cncc4OC)c3c2cc1-c1cnn(C)c1` [compound 116, 1-(3-Fluoro-5-methoxy-pyridin-4-yl)-7-methoxy-8-(1-methyl-1H-pyrazol-4-yl)-1,3-dihydroimidazo[4,5-c]-quinolin-2-one]: the IC50 was less than 10 nM.

In the case of `COc1cc2ncc3c(c2cc1-c1cnn(C)c1)n(-c1ncc(Cl)cc1F)c(=O)n3C` [compound 119, 1-(5-Chloro-3-fluoropyridin-2-yl)-7-methoxy-3-methyl-8-(1-methyl-1H-pyrazol-4-yl)-1,3-dihydroimidazo[4,5-c]-quinolin-2-one], the IC50 was less than 1 nM.

For `COc1cc2ncc3c(c2cc1-c1ccn[nH]1)n(-c1c(F)cncc1OC)c(=O)n3C` [compound 124, 1-(3-Fluoro-5-methoxy-pyridin-4-yl)-7-methoxy-3-methyl-8-(2H-pyrazol-3-yl)-1,3-dihydroimidazo[4,5-c] quinolin-2-one], the 50% inhibitory concentration (IC50) is less than 50 nM.

`COc1cc2ncc3c(c2cc1-c1cnn(C)n1)n(-c1c(F)cncc1OC)c(=O)n3C` [compound 127, 1-(3-Fluoro-5-methoxy-pyridin-4-yl)-7-methoxy-3-methyl-8-(2-methyl-2H-1,2,3-triazol-4-yl)-1,3-dihydroimidazo[4,5-c] quinolin-2-one]: the IC50 is less than 10 nM.

Turning to `COc1cnc(-n2c(=O)n(C)c3cnc4cc(OC)c(-c5cnn[nH]5)cc4c32)c(F)c1` [compound 128, 1-(3-Fluoro-5-methoxy-pyridin-2-yl)-7-methoxy-3-methyl-8-(3H-1,2,3-triazol-4-yl)-1,3-dihydroimidazo-[4,5-c] quinolin-2-one], the IC50 was less than 10 nM.

With `COc1cc2ncc3[nH]c(=O)n(-c4c(F)cncc4OC)c3c2cc1-c1cn(C)nc1C` [compound 129, 8-(1,3-Dimethyl-1H-pyrazol-4-yl)-1-(3-fluoro-5-methoxy-pyridin-4-yl)-7-methoxy-1,3-dihydroimidazo[4,5-c]-quinolin-2-one], the IC50 is less than 1 nM.

Regarding `CCn1cc(-n2c(=O)n(C)c3cnc4cc(OC)c(-c5cnn(C)c5)cc4c32)c(C)n1` [compound 130, 1-(1-Ethyl-3-methyl-1H-pyrazol-4-yl)-7-methoxy-3-methyl-8-(1-methyl-1H-pyrazol-4-yl)-1,3-dihydro-imidazo[4,5-c]quinolin-2-one], the IC50 is less than 1 nM.
